In this experiment the target is T1, human TLR8 (Homo sapiens, UniProt Q9NR97).
T1 sequence (Q9NR97 27-1041): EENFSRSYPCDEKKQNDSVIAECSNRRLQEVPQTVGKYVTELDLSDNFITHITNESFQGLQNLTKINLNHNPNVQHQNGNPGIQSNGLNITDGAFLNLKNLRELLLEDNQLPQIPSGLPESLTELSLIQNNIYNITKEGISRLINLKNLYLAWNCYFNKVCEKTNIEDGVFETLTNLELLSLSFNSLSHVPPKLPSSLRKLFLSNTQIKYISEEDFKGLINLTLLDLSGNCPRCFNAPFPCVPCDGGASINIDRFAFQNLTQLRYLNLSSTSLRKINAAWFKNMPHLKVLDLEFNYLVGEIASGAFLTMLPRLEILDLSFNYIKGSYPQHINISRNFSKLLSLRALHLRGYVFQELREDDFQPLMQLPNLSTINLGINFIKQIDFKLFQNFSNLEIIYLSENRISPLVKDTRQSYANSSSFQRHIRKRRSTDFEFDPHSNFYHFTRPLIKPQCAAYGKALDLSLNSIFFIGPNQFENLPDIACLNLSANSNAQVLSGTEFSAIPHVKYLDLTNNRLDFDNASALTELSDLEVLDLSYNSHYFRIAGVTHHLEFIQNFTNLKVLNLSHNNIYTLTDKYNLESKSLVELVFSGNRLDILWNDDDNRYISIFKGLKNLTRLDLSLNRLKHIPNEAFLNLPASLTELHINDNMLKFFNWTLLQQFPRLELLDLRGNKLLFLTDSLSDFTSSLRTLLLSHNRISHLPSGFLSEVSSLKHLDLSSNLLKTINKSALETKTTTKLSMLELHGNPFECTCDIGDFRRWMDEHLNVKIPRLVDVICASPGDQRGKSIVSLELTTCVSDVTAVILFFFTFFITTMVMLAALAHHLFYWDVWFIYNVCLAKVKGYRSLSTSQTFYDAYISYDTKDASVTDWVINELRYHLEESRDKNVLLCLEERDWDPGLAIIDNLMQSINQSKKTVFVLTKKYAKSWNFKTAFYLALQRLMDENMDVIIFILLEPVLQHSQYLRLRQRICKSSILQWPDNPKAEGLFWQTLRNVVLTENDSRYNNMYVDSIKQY
Put plainly: HEK293-Blue-hTLR-8 cells assay (SEAP reporter, R848 stimulation). Type of experiment: cell-based. Conditions: HEK293-Blue-hTLR8 cells, R848 ligand, 20 hrs incubation. How it is done: The following tests were carried out in order to determine the activity of the compounds of formula (I) in HEK293-Blue-hTLR-7/8/9 cells assay.
HEK293-Blue-hTLR-8 Cells Assay:
A stable HEK293-Blue-hTLR-8 cell line was purchased from InvivoGen (Cat. #: hkb-htlr8, San Diego, Calif., USA). These cells were originally designed for studying the stimulation of human TLR8 by monitoring the activation of NF-κB. A SEAP (secreted embryonic alkaline phosphatase) reporter gene was placed under the control of the IFN-β minimal promoter fused to five NF-κB and AP-1-binding sites. The SEAP was induced by activating NF-κB and AP-1 via stimulating HEK-Blue hTLR8 cells with TLR8 ligands. Therefore the reporter expression was declined by TLR8 antagonist under the stimulation of a ligand, such as R848, for incubation of 20 hrs. The cell culture supernatant SEAP reporter activity was determined using QUANTI-Blue™ kit (Cat. #: rep-qb1, Invivogen, San Diego, Ca, USA) at a wavelength of 640 nm, a detection medium that turns purple or blue in the presence of alkaline phosphatase.
HEK293-Blue-hTLR8 cells were incubated at a density of 250,000˜450,000 cells/mL in a volume of 170 μL in a 96-well plate in Dulbecco's Modified Eagle's medium (DMEM) containing 4.5 g/L glucose, 50 U/mL penicillin, […], […], 2 mM L-glutamine, 10% (v/v) heat-inactivated fetal bovine serum with addition of 20 μL test compound in a serial dilution in the presence of final DMSO at 1% and 10 μL of 60 uM R848 in above DMEM, perform incubation under 37° C. in a CO2 incubator for 20 hrs. Then 20 μL of the supernatant from each well was incubated with 180 μL Quanti-blue substrate solution at 37° C. for 2 hrs and the absorbance was read at 620-655 nm using a spectrophotometer. The signalling pathway that TLR8 activation leads to downstream NF-κB activation has been widely accepted, and therefore similar reporter assay was modified for evaluating TLR8 antagonist.
`CC[C@@H]1CN(c2ccc(C#N)c3ncccc23)C[C@H]1CN1CCC2(CCNCC2)CC1` (relative stereo) [Example 15, 5-[Trans-3-(3,9-diazaspiro[5.5]undecan-3-ylmethyl)-4-ethyl-pyrrolidin-1-yl]quinoline-8-carbonitrile] came in with an IC50 of 0.19 µM.

As for `FC(F)(F)c1ccc(N2C[C@@H](CN3CCC4(CCNC4)C3)[C@H](C(F)(F)F)C2)c2nccnc12` (relative stereo) [Example 19, 5-[Trans-3-(2,7-diazaspiro[4.4]nonan-2-ylmethyl)-4-(trifluoromethyl)pyrrolidin-1-yl]-8-(trifluoromethyl)quinoxaline], the IC50 came to 0.253 µM.

`C[C@@H]1CN(c2ccc(C(F)(F)F)c3nccnc23)C[C@H]1CN1CCC2(CCNCC2)CC1` (relative stereo) [Example 21, 3-[[Trans-4-methyl-1-[8-(trifluoromethyl)quinoxalin-5-yl]pyrrolidin-3-yl]methyl]-3,9-diazaspiro[5.5]undecane] registered an IC50 of 0.351 µM.

Compound `N#Cc1ccc(N2C[C@@H](CN3CCC4(CCNCC4)CC3)[C@H](C(F)F)C2)c2cccnc12` (relative stereo) [Example 27, 5-[Trans-3-(3,9-diazaspiro[5.5]undecan-3-ylmethyl)-4-(difluoromethyl)pyrrolidin-1-yl]quinoline-8-carbonitrile] returned an IC50 of 0.454 µM.

As to `N#Cc1ccc(N2C[C@@H](CN3CCC4(CCNCC4)CC3)[C@H](C3CC3)C2)c2cccnc12` (relative stereo) [Example 28, 5-[Trans-3-cyclopropyl-4-(3,9-diazaspiro[5.5]undecan-3-ylmethyl)pyrrolidin-1-yl]quinoline-8-carbonitrile], half-maximal inhibition (IC50) required 0.948 µM.

Take `CC[C@@H]1CN(c2ccc(C#N)c3ncccc23)C[C@H]1CN1CCC2(CCNC2)C1` (relative stereo) [Example 29, 5-[Trans-3-(2,7-diazaspiro[4.4]nonan-2-ylmethyl)-4-ethyl-pyrrolidin-1-yl]quinoline-8-carbonitrile]: the IC50 amounted to 0.197 µM.

For `C[C@@H]1CN(c2ccc(C(F)(F)F)c3nccnc23)C[C@H]1CN1CCC(N2CCCCC2)CC1` (relative stereo) [Example 33, 5-[Trans-3-methyl-4-[[4-(1-piperidyl)-1-piperidyl]methyl]pyrrolidin-1-yl]-8-(trifluoromethyl)quinoxaline], half-maximal inhibition (IC50) was put at 0.245 µM.

`N#Cc1ccc(N2C[C@@H](CN3CCC4(CCNC4)C3)[C@H](C(F)F)C2)c2cccnc12` (relative stereo) [Example 34, 5-[Trans-3-(2,7-diazaspiro[4.4]nonan-2-ylmethyl)-4-(difluoromethyl)pyrrolidin-1-yl]quinoline-8-carbonitrile] registered an IC50 of 0.373 µM.

For the compound `CC(C)[C@@H]1CN(c2ccc(C#N)c3ncccc23)C[C@H]1CN1CCC2(CCNCC2)CC1` (relative stereo) [Example 36, 5-[Trans-3-(3,9-diazaspiro[5.5]undecan-3-ylmethyl)-4-isopropyl-pyrrolidin-1-yl]quinoline-8-carbonitrile], the midpoint of inhibition, the IC50, lay at 5.17 µM.

In turn, `CC(C)[C@@H]1CN(c2ccc(C#N)c3ncccc23)C[C@H]1CN1CCC2(CCNC2)C1` (relative stereo) [Example 44, 5-[Trans-3-(2,7-diazaspiro[4.4]nonan-2-ylmethyl)-4-isopropyl-pyrrolidin-1-yl]quinoline-8-carbonitrile] showed an IC50 of 0.533 µM.

As for `N#Cc1ccc(N2CC(CN3CCC(N)CC3)C3(CC3)C2)c2nccnc12` (single isomer, unassigned) [Example 68A, 8-[7-[(4-Amino-1-piperidyl)methyl]-5-azaspiro[2.4]heptan-5-yl]quinoxaline-5-carbonitrile], it took 0.06 µM to reach half-maximal inhibition (IC50).

The compound `N#Cc1ccc(N2C[C@H](CN3CCC4(CCNCC4)CC3)[C@@H](C(F)(F)F)C2)c2nccnc12` [Example 1, 8-[(3S,4R)-3-(3,9-diazaspiro[5.5]undecan-3-ylmethyl)-4-(trifluoromethyl)pyrrolidin-1-yl]quinoxaline-5-carbonitrile] came in with an IC50 of 0.02 µM.

The compound `N#Cc1ccc(N2C[C@H](CN3CCC4(CCNCC4)CC3)[C@@H](C(F)(F)F)C2)c2cccnc12` [Example 2, 5-[(3S,4R)-3-(3,9-diazaspiro[5.5]undecan-3-ylmethyl)-4-(trifluoromethyl)pyrrolidin-1-yl]quinoline-8-carbonitrile] came in with an IC50 of 0.057 µM.

`N#Cc1ccc(N2C[C@H](CN3CCC4(CCNC4)C3)[C@@H](C(F)(F)F)C2)c2nccnc12` (stereo partly drawn) [Example 5, 8-[(3S,4R)-3-(2,7-diazaspiro[4.4]nonan-2-ylmethyl)-4-(trifluoromethyl)pyrrolidin-1-yl]quinoxaline-5-carbonitrile] showed an IC50 of 0.035 µM.

`N#Cc1ccc(N2C[C@H](CN3CCC4(CCCNC4)C3)[C@@H](C(F)(F)F)C2)c2cccnc12` (stereo partly drawn) [Example 6, 5-[(3S,7R)-3-(2,9-diazaspiro[4.5]decan-2-ylmethyl)-4-(trifluoromethyl)pyrrolidin-1-yl]quinoline-8-carbonitrile] displayed an IC50 of 0.039 µM.

For the compound `CC1(N)CCN(CC2CN(c3ccc(C#N)c4nccnc34)CC23CC3)CC1` (stereo not shown) [Example 7, 8-[7-[(4-Amino-4-methyl-1-piperidyl)methyl]-5-azaspiro[2.4]heptan-5-yl]quinoxaline-5-carbonitrile], the IC50 came to 0.043 µM.

Regarding `N#Cc1ccc(N2C[C@H](CN3CC4(CCCNC4)C3)[C@@H](C(F)(F)F)C2)c2cccnc12` [Example 8, 5-[(3S,7R)-3-(2,8-diazaspiro[3.5]nonan-2-ylmethyl)-4-(trifluoromethyl)pyrrolidin-1-yl]quinoline-8-carbonitrile], the IC50 was determined as 0.055 µM.

On to `N#Cc1ccc(N2C[C@H](CN3CCC4(CCNC4)C3)[C@@H](C(F)(F)F)C2)c2cccnc12` (stereo partly drawn) [Example 9, 5-[(3S,4R)-3-(2,7-diazaspiro[4.4]nonan-2-ylmethyl)-4-(trifluoromethyl)pyrrolidin-1-yl]quinoline-8-carbonitrile], for which half-maximal inhibition (IC50) required 0.047 µM.

With `N#Cc1ccc(N2C[C@H](CN3CCC(N4CCCCC4)CC3)[C@@H](C(F)(F)F)C2)c2cccnc12` [Example 10, 5-[(3S,4R)-3-[[4-(1-piperidyl)-1-piperidyl]methyl]-4-(trifluoromethyl)pyrrolidin-1-yl]quinoline-8-carbonitrile], 0.052 µM corresponded to half-maximal inhibition (IC50).

Take `N#Cc1ccc(N2CC(CN3CCC(N4CCCCC4)CC3)C3(CC3)C2)c2nccnc12` (stereo not shown) [Example 11, 8-[7-[[4-(1-Piperidyl)-1-piperidyl]methyl]-5-azaspiro[2.4]heptan-5-yl]quinoxaline-5-carbonitrile]: the IC50 is 0.024 µM.

As for `CC1(N)CCN(C[C@H]2CN(c3ccc(C#N)c4nccnc34)C[C@@H]2C(F)(F)F)CC1` [Example 12, 8-[(3S,4R)-3-[(4-amino-4-methyl-1-piperidyl)methyl]-4-(trifluoromethyl)pyrrolidin-1-yl]quinoxaline-5-carbonitrile], the IC50 is 0.031 µM.

The compound `N#Cc1ccc(N2CC(CN3CCC4(CCCNC4)CC3)C3(CC3)C2)c2nccnc12` (stereo not shown) [Example 13, 8-[7-(2,9-Diazaspiro[5.5]undecan-9-ylmethyl)-5-azaspiro[2.4]heptan-5-yl]quinoxaline-5-carbonitrile] showed an IC50 of 0.05 µM.

The IC50 is the concentration needed to halve the response being measured. High values mean lower potency, low ones higher potency.
